Assay results as given in US20230398130A1, “METHODS AND COMPOSITIONS FOR DIFFERENTIATING STEM CELLS” (Massachusetts Institute of Technology, priority 2020, published 2023).

Key:
ISC-enriched organoids [1] = assay: Primary screen, 384-well 2.5-D organoid differentiation (ENR+CD, 6 days): basal lysozyme secretion (LYZ.NS); format: cell-based, murine; settings: for Dose.FC.LYZ.NS: FC vs plate median; for Z.LYZ.NS: standard z score of FC; for Dose.FC.LYZ.NS (log 2 fold change, basal lysozyme secretion): vs plate median; for SSMD.LYZ.NS: strictly standardized mean difference
From the text: (§1) High-throughput screening.

ISC-enriched organoids [2] = assay: Primary screen, 384-well 2.5-D organoid differentiation (ENR+CD, 6 days): carbachol-induced lysozyme secretion (LYZ.S); format: cell-based, murine; settings: for Dose.FC.LYZ.S / Z.LYZ.S / SSMD.LYZ.S: primary screen; for Dose.FC.LYZ.S: FC vs plate median; for Dose.FC.LYZ.S (log 2 fold change, carbachol-induced lysozyme secretion): vs plate median; for Z.LYZ.S: standard z score; for SSMD.LYZ.S: strictly standardized mean difference
From the text: as §1

ISC-enriched organoids [3] = assay: Primary screen, 384-well 2.5-D organoid differentiation (ENR+CD, 6 days, Target Selective Inhibitor Library, vs whole-plate median): ATP (CellTiter-Glo 3D, CTG); settings: for Dose.FC.CTG: FC vs plate median; for Z.CTG: standard z score of FC; for Dose.FC.CTG (log 2 fold change, ATP): vs plate median; for SSMD.CTG: strictly standardized mean difference
[4] = primary screen, dose 0.08 uM, ENR+CD 6 days
[5] = primary screen, dose 0.40 uM, ENR+CD 6 days
[6] = primary screen, dose 2.00 uM, ENR+CD 6 days
[7] = primary screen, dose 10.00 uM, ENR+CD 6 days
[8] = primary screen, 1st of the 4 dose lines of the treatment (dose not given)
[9] = primary screen, 2nd of the 4 dose lines of the treatment (dose not given)
[10] = primary screen, 3rd of the 4 dose lines of the treatment (dose not given)
[11] = primary screen, 4th of the 4 dose lines of the treatment (dose not given)
[12] = 1st of the 4 dose lines of the treatment (dose not given)
[13] = 2nd of the 4 dose lines of the treatment (dose not given)
[14] = 3rd of the 4 dose lines of the treatment (dose not given)
[15] = 4th of the 4 dose lines of the treatment (dose not given)

SMILES: COc1cc(N2CCC(N)CC2)ccc1Nc1ncc(Cl)c(-c2c[nH]c3ccccc23)n1 [AZD3463]
- Dose.FC.LYZ.NS (ISC-enriched organoids [1]; [4]): −0.147 log 2 fold change
- Z.LYZ.NS (ISC-enriched organoids [1]; primary screen, dose 0.08 uM): −1.279
- Dose.FC.LYZ.NS (ISC-enriched organoids [1]; [5]): −0.190 log 2 fold change
- Z.LYZ.NS (ISC-enriched organoids [1]; primary screen, dose 0.40 uM): −1.652
- Dose.FC.LYZ.NS (ISC-enriched organoids [1]; [6]): −0.232 log 2 fold change
- Z.LYZ.NS (ISC-enriched organoids [1]; primary screen, dose 2.00 uM): −2.021
- Dose.FC.LYZ.NS (ISC-enriched organoids [1]; [7]): −0.209 log 2 fold change
- Z.LYZ.NS (ISC-enriched organoids [1]; primary screen, dose 10.00 uM): −1.820
- Dose.FC.LYZ.S (ISC-enriched organoids [2]; dose 0.08 uM, ENR+CD 6 days): −0.199 log 2 fold change
- Dose.FC.LYZ.S (ISC-enriched organoids [2]; dose 0.40 uM, ENR+CD 6 days): −0.293 log 2 fold change
- Dose.FC.LYZ.S (ISC-enriched organoids [2]; dose 2.00 uM, ENR+CD 6 days): −0.315 log 2 fold change
- Dose.FC.LYZ.S (ISC-enriched organoids [2]; dose 10.00 uM, ENR+CD 6 days): −0.328 log 2 fold change
- Dose.FC.CTG (ISC-enriched organoids [3]; [4]): −0.275 log 2 fold change
- Z.CTG (ISC-enriched organoids [3]; primary screen, dose 0.08 uM): −0.657
- Dose.FC.CTG (ISC-enriched organoids [3]; [5]): −0.341 log 2 fold change
- Z.CTG (ISC-enriched organoids [3]; primary screen, dose 0.40 uM): −0.814
- Dose.FC.CTG (ISC-enriched organoids [3]; [6]): −0.772 log 2 fold change
- Z.CTG (ISC-enriched organoids [3]; primary screen, dose 2.00 uM): −1.843
- Dose.FC.CTG (ISC-enriched organoids [3]; [7]): −0.960 log 2 fold change
- Z.CTG (ISC-enriched organoids [3]; primary screen, dose 10.00 uM): −2.293

SMILES: CC(/C=C/C(=O)NO)=C\[C@@H](C)C(=O)c1ccc(N(C)C)cc1 [Trichostatin A (TSA)]
- Z.LYZ.NS (standard z score) (ISC-enriched organoids [1]; dose 0.08 uM): −0.554
- Dose.FC.LYZ.NS (log 2 fold change, basal lysozyme secretion) (ISC-enriched organoids [1]; dose 0.08 uM): −0.064
- Z.LYZ.NS (standard z score) (ISC-enriched organoids [1]; dose 0.40 uM): −1.697
- Dose.FC.LYZ.NS (log 2 fold change, basal lysozyme secretion) (ISC-enriched organoids [1]; dose 0.40 uM): −0.195
- Z.LYZ.NS (standard z score) (ISC-enriched organoids [1]; dose 2.00 uM): −1.334
- Dose.FC.LYZ.NS (log 2 fold change, basal lysozyme secretion) (ISC-enriched organoids [1]; dose 2.00 uM): −0.153
- Z.LYZ.NS (standard z score) (ISC-enriched organoids [1]; dose 10.00 uM): −1.298
- Dose.FC.LYZ.NS (log 2 fold change, basal lysozyme secretion) (ISC-enriched organoids [1]; dose 10.00 uM): −0.149
- Dose.FC.LYZ.S (log 2 fold change, carbachol-induced lysozyme secretion) (ISC-enriched organoids [2]; dose 0.08 uM): −0.124
- Dose.FC.LYZ.S (log 2 fold change, carbachol-induced lysozyme secretion) (ISC-enriched organoids [2]; dose 0.40 uM): −0.254
- Dose.FC.LYZ.S (log 2 fold change, carbachol-induced lysozyme secretion) (ISC-enriched organoids [2]; dose 2.00 uM): −0.210
- Dose.FC.LYZ.S (log 2 fold change, carbachol-induced lysozyme secretion) (ISC-enriched organoids [2]; dose 10.00 uM): −0.202
- Z.CTG (standard z score) (ISC-enriched organoids [3]; dose 0.08 uM): 0.457
- Dose.FC.CTG (log 2 fold change, ATP) (ISC-enriched organoids [3]; dose 0.08 uM): 0.191
- Z.CTG (standard z score) (ISC-enriched organoids [3]; dose 0.40 uM): −1.913
- Dose.FC.CTG (log 2 fold change, ATP) (ISC-enriched organoids [3]; dose 0.40 uM): −0.801
- Z.CTG (standard z score) (ISC-enriched organoids [3]; dose 2.00 uM): −2.159
- Dose.FC.CTG (log 2 fold change, ATP) (ISC-enriched organoids [3]; dose 2.00 uM): −0.904
- Z.CTG (standard z score) (ISC-enriched organoids [3]; dose 10.00 uM): −1.974
- Dose.FC.CTG (log 2 fold change, ATP) (ISC-enriched organoids [3]; dose 10.00 uM): −0.826

SMILES: CCCC(C)NC(=O)c1ccc(Cl)c(Cl)c1 (centres unmarked) [NSC 405020]
- Dose.FC.LYZ.NS (ISC-enriched organoids [1]; Dose 0.08 uM, primary screen): 0.008 log 2 fold change
- Z.LYZ.NS (ISC-enriched organoids [1]; Dose 0.08 uM): 0.071
- Dose.FC.LYZ.NS (ISC-enriched organoids [1]; Dose 0.40 uM, primary screen): −0.028 log 2 fold change
- Z.LYZ.NS (ISC-enriched organoids [1]; Dose 0.40 uM): −0.246
- Dose.FC.LYZ.NS (ISC-enriched organoids [1]; Dose 2.00 uM, primary screen): 0.018 log 2 fold change
- Z.LYZ.NS (ISC-enriched organoids [1]; Dose 2.00 uM): 0.160
- Dose.FC.LYZ.NS (ISC-enriched organoids [1]; Dose 10.00 uM, primary screen): −0.065 log 2 fold change
- Z.LYZ.NS (ISC-enriched organoids [1]; Dose 10.00 uM): −0.570
- Dose.FC.LYZ.S (ISC-enriched organoids [2]; Dose 0.08 uM): 0.014 log 2 fold change
- Dose.FC.LYZ.S (ISC-enriched organoids [2]; Dose 0.40 uM): 0.093 log 2 fold change
- Dose.FC.LYZ.S (ISC-enriched organoids [2]; Dose 2.00 uM): 0.002 log 2 fold change
- Dose.FC.LYZ.S (ISC-enriched organoids [2]; Dose 10.00 uM): −0.061 log 2 fold change
- Dose.FC.CTG (ISC-enriched organoids [3]; Dose 0.08 uM, primary screen): −0.059 log 2 fold change
- Z.CTG (ISC-enriched organoids [3]; Dose 0.08 uM): −0.140
- Dose.FC.CTG (ISC-enriched organoids [3]; Dose 0.40 uM, primary screen): −0.071 log 2 fold change
- Z.CTG (ISC-enriched organoids [3]; Dose 0.40 uM): −0.170
- Dose.FC.CTG (ISC-enriched organoids [3]; Dose 2.00 uM, primary screen): −0.059 log 2 fold change
- Z.CTG (ISC-enriched organoids [3]; Dose 2.00 uM): −0.141
- Dose.FC.CTG (ISC-enriched organoids [3]; Dose 10.00 uM, primary screen): −0.058 log 2 fold change
- Z.CTG (ISC-enriched organoids [3]; Dose 10.00 uM): −0.138

SMILES: O=C(O)Cn1nnc(-c2cc(N3CCC(Oc4cc(F)ccc4Br)CC3)no2)n1 [MK-8245]
- SSMD.LYZ.NS (ISC-enriched organoids [1]; [8]): 0.168
- SSMD.LYZ.NS (ISC-enriched organoids [1]; [9]): 0.200
- SSMD.LYZ.NS (ISC-enriched organoids [1]; [10]): −0.322
- SSMD.LYZ.NS (ISC-enriched organoids [1]; [11]): −0.716
- Z.LYZ.S (ISC-enriched organoids [2]; [12]): 0.449
- Z.LYZ.S (ISC-enriched organoids [2]; [13]): 1.194
- Z.LYZ.S (ISC-enriched organoids [2]; [14]): −0.399
- Z.LYZ.S (ISC-enriched organoids [2]; [15]): −0.799
- SSMD.LYZ.S (ISC-enriched organoids [2]; [12]): 0.442
- SSMD.LYZ.S (ISC-enriched organoids [2]; [13]): 0.527
- SSMD.LYZ.S (ISC-enriched organoids [2]; [14]): −0.357
- SSMD.LYZ.S (ISC-enriched organoids [2]; [15]): −0.752
- Z.CTG (ISC-enriched organoids [3]; Dose 0.08 uM): 0.374
- Z.CTG (ISC-enriched organoids [3]; Dose 0.40 uM): −0.269
- Z.CTG (ISC-enriched organoids [3]; Dose 2.00 uM): −0.051
- Z.CTG (ISC-enriched organoids [3]; Dose 10.00 uM): −0.629
- SSMD.CTG (ISC-enriched organoids [3]; [8]): 0.453
- SSMD.CTG (ISC-enriched organoids [3]; [9]): −0.219
- SSMD.CTG (ISC-enriched organoids [3]; [10]): −0.054
- SSMD.CTG (ISC-enriched organoids [3]; [11]): −0.921
